In patent US20230085307A1, “PYRIDAZINONE COMPOUND AND HERBICIDE” (NISSAN CHEMICAL CORPORATION, priority 2019, published 2023):

Columns and labels:
late watergrass = experiment: Test Example 1: herbicidal activity, application before weed generation under submerged conditions (Table 16, symbol A); format: in vivo, late watergrass (Echinochloa oryzicola)
Method in brief: (§1)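 Emulsion formulation, water-diluted to set dose, was put onto the flooded surface (4 cm depth, alluvial soil) the same day weeds were sown and 2.5-leaf rice transplanted. After 3 weeks at 25-30 °C under glass, each species was rated 0 (≤5% kill) to 5 (≥90% kill).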

Japanese bulrush = experiment: Test Example 1: herbicidal activity, application before weed generation under submerged conditions (Table 16, symbol B); format: in vivo, Japanese bulrush (Schoenoplectus juncoides)
Method in brief: as §1

oval-leafed pondweed = experiment: Test Example 1: herbicidal activity, application before weed generation under submerged conditions (Table 16, symbol C); format: in vivo, oval-leafed pondweed (Monochoria vaginalis)
Method in brief: as §1

barnyard grass [1] = experiment: Test Example 3: herbicidal effect by foliage application, Wagner pot (Table 18, symbol H); format: in vivo, barnyard grass (Echinochloa crus-galli); details: amount of applied herbicide 320 g/ha
Method in brief: (§2)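 Plants were sown in alluvial soil held under 0.1–0.5 cm standing water and grown 14 days in a greenhouse at 25–30 °C. An emulsifiable formulation, water-diluted to the set dose, was then sprayed onto the foliage, and effects were scored three weeks later using previously defined criteria.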

Chinese sprangletop = experiment: Test Example 3: herbicidal effect by foliage application, Wagner pot (Table 18, symbol D); format: in vivo, chinese sprangletop (Leptochloa chinensis); details: amount of applied herbicide 320 g/ha
Method in brief: as §2

rice flat sedge = experiment: Test Example 3: herbicidal effect by foliage application, Wagner pot (Table 18, symbol E); format: in vivo, rice flat sedge (Cyperus iria); details: amount of applied herbicide 320 g/ha
Method in brief: as §2

southern crabgrass [2] = experiment: Test Example 4: herbicidal effect by soil treatment (Table 19, symbol F); format: in vivo, southern crabgrass (Digitaria ciliaris); details: amount of applied herbicide 320 g/ha
Method in brief: (§3)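 Pre-emergence style soil spray: seeds under ~1.5 cm sterilized diluvial soil received a uniform coat of emulsion diluted to the predetermined herbicide amount. Greenhouse 25–30° C; readout at week three on previously defined criteria.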

green foxtail [3] = experiment: Test Example 4: herbicidal effect by soil treatment (Table 19, symbol G); format: in vivo, green foxtail (Setaria viridis); details: amount of applied herbicide 320 g/ha
Method in brief: as §3

barnyard grass [4] = experiment: Test Example 4: herbicidal effect by soil treatment (Table 19, symbol H); format: in vivo, barnyard grass (Echinochloa crus-galli); details: amount of applied herbicide 320 g/ha
Method in brief: as §3

wild oat [5] = experiment: Test Example 4: herbicidal effect by soil treatment (Table 19, symbol I); format: in vivo, wild oat (Avena fatua); details: amount of applied herbicide 320 g/ha
Method in brief: as §3

blackgrass [6] = experiment: Test Example 4: herbicidal effect by soil treatment (Table 19, symbol J); format: in vivo, blackgrass (Alopecurus myosuroides); details: amount of applied herbicide 320 g/ha
Method in brief: as §3

Italian ryegrass [7] = experiment: Test Example 4: herbicidal effect by soil treatment (Table 19, symbol K); format: in vivo, Italian ryegrass (Lolium multiflorum); details: amount of applied herbicide 320 g/ha
Method in brief: as §3

windgrass = experiment: Test Example 4: herbicidal effect by soil treatment (Table 19, symbol L); format: in vivo, windgrass (Apera spica-venti); details: amount of applied herbicide 320 g/ha
Method in brief: as §3

velvetleaf [8] = experiment: Test Example 4: herbicidal effect by soil treatment (Table 19, symbol M); format: in vivo, velvetleaf (Abutilon theophrasti); details: amount of applied herbicide 320 g/ha
Method in brief: as §3

redroot pigweed [9] = experiment: Test Example 4: herbicidal effect by soil treatment (Table 19, symbol N); format: in vivo, redroot pigweed (Amaranthus retroflexus); details: amount of applied herbicide 320 g/ha
Method in brief: as §3

lambsquarters [10] = experiment: Test Example 4: herbicidal effect by soil treatment (Table 19, symbol O); format: in vivo, lambsquarters (Chenopodium album); details: amount of applied herbicide 320 g/ha
Method in brief: as §3

chickweed [11] = experiment: Test Example 4: herbicidal effect by soil treatment (Table 19, symbol P); format: in vivo, common chickweed (Stellaria media); details: amount of applied herbicide 320 g/ha
Method in brief: as §3

persian speedwell [12] = experiment: Test Example 4: herbicidal effect by soil treatment (Table 19, symbol R); format: in vivo, Persian speedwell (Veronica persica); details: amount of applied herbicide 320 g/ha
Method in brief: as §3

southern crabgrass [13] = experiment: Test Example 5: herbicidal effect by foliage application, plastic box (Table 20, symbol F); format: in vivo, southern crabgrass (Digitaria ciliaris); details: foliage application
Method in brief: (§4)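 Plants were sown into sterilized diluvial soil under about 1.5 cm cover and kept in a greenhouse at 25° C. to 30° C. Fourteen days on, foliage received an even spray of the diluted emulsion. Herbicidal or crop effect was judged three weeks afterwards.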

green foxtail [14] = experiment: Test Example 5: herbicidal effect by foliage application, plastic box (Table 20, symbol G); format: in vivo, green foxtail (Setaria viridis); details: foliage application
Method in brief: as §4

barnyard grass [15] = experiment: Test Example 5: herbicidal effect by foliage application, plastic box (Table 20, symbol H); format: in vivo, barnyard grass (Echinochloa crus-galli); details: foliage application
Method in brief: as §4

wild oat [16] = experiment: Test Example 5: herbicidal effect by foliage application, plastic box (Table 20, symbol I); format: in vivo, wild oat (Avena fatua); details: foliage application
Method in brief: as §4

blackgrass [17] = experiment: Test Example 5: herbicidal effect by foliage application, plastic box (Table 20, symbol J); format: in vivo, blackgrass (Alopecurus myosuroides); details: foliage application
Method in brief: as §4

Italian ryegrass [18] = experiment: Test Example 5: herbicidal effect by foliage application, plastic box (Table 20, symbol K); format: in vivo, Italian ryegrass (Lolium multiflorum); details: foliage application
Method in brief: as §4

velvetleaf [19] = experiment: Test Example 5: herbicidal effect by foliage application, plastic box (Table 20, symbol M); format: in vivo, velvetleaf (Abutilon theophrasti); details: foliage application
Method in brief: as §4

redroot pigweed [20] = experiment: Test Example 5: herbicidal effect by foliage application, plastic box (Table 20, symbol N); format: in vivo, redroot pigweed (Amaranthus retroflexus); details: foliage application
Method in brief: as §4

lambsquarters [21] = experiment: Test Example 5: herbicidal effect by foliage application, plastic box (Table 20, symbol O); format: in vivo, lambsquarters (Chenopodium album); details: foliage application
Method in brief: as §4

chickweed [22] = experiment: Test Example 5: herbicidal effect by foliage application, plastic box (Table 20, symbol P); format: in vivo, common chickweed (Stellaria media); details: foliage application
Method in brief: as §4

persian speedwell [23] = experiment: Test Example 5: herbicidal effect by foliage application, plastic box (Table 20, symbol R); format: in vivo, Persian speedwell (Veronica persica); details: foliage application
Method in brief: as §4

[24] = AAH 320 g/ha, evaluated three weeks after application
[25] = amount of applied herbicide 320 g/ha
[26] = 320 g/ha, three weeks after application

## Cc1nn(C)c(=O)c(-c2c(-c3ccc(OC(F)F)cc3)sc3ccc(F)cc23)c1OS(=O)(=O)N(C)C [2-310]
Late watergrass; 320 g/ha applied herbicide
  Herbicidal effect on A: late watergrass (grade 0-5): 0 (Herbicidal rate of 5% or less (almost no effect))
Japanese bulrush; 320 g/ha applied herbicide
  Herbicidal effect on B: Japanese bulrush (grade 0-5): 2 (Herbicidal rate of 20% or more and less than 40%)
oval-leafed pondweed; 320 g/ha applied herbicide
  Herbicidal effect on C: oval-leafed pondweed (grade 0-5): 0 (Herbicidal rate of 5% or less (almost no effect))
Barnyard grass [1]
  herbicidal effect on H: barnyard grass: 5 (Herbicidal rate of 90% or more (almost completely withered))
Chinese sprangletop
  herbicidal effect on D: Chinese sprangletop: 4 (Herbicidal rate of 70% or more and less than 90%)
Rice flat sedge
  herbicidal effect on E: rice flat sedge: 3 (Herbicidal rate of 40% or more and less than 70%)
Southern crabgrass [2]
  herbicidal effect on F: southern crabgrass: 0 (Herbicidal rate of 5% or less (almost no effect))
Green foxtail [3]
  herbicidal effect on G: green foxtail: 0 (Herbicidal rate of 5% or less (almost no effect))
Barnyard grass [4]
  herbicidal effect on H: barnyard grass: 0 (Herbicidal rate of 5% or less (almost no effect))
Wild oat [5]
  herbicidal effect on I: wild oat: 0 (Herbicidal rate of 5% or less (almost no effect))
Blackgrass [6]
  herbicidal effect on J: blackgrass: 0 (Herbicidal rate of 5% or less (almost no effect))
Italian ryegrass [7]
  herbicidal effect on K: Italian ryegrass: 0 (Herbicidal rate of 5% or less (almost no effect))
windgrass
  herbicidal effect on L: windgrass: 0 (Herbicidal rate of 5% or less (almost no effect))
Velvetleaf [8]
  herbicidal effect on M: velvetleaf: 0 (Herbicidal rate of 5% or less (almost no effect))
Redroot pigweed [9]
  herbicidal effect on N: redroot pigweed: 0 (Herbicidal rate of 5% or less (almost no effect))
Lambsquarters [10]
  herbicidal effect on O: lambsquarters: 0 (Herbicidal rate of 5% or less (almost no effect))
Chickweed [11]
  herbicidal effect on P: chickweed: 3 (Herbicidal rate of 40% or more and less than 70%)
Persian speedwell [12]
  herbicidal effect on R: persian speedwell: 4 (Herbicidal rate of 70% or more and less than 90%)
Southern crabgrass [13]; [24]
  F: southern crabgrass, herbicidal effect (criteria 0-5): 0 (Herbicidal rate of 5% or less (almost no effect))
Green foxtail [14]; [24]
  G: green foxtail, herbicidal effect (criteria 0-5): 5 (Herbicidal rate of 90% or more (almost completely withered))
Barnyard grass [15]; [24]
  H: barnyard grass, herbicidal effect (criteria 0-5): 5 (Herbicidal rate of 90% or more (almost completely withered))
Wild oat [16]; [24]
  I: wild oat, herbicidal effect (criteria 0-5): 0 (Herbicidal rate of 5% or less (almost no effect))
Blackgrass [17]; [24]
  J: blackgrass, herbicidal effect (criteria 0-5): 0 (Herbicidal rate of 5% or less (almost no effect))
Italian ryegrass [18]; [24]
  K: Italian ryegrass, herbicidal effect (criteria 0-5): 0 (Herbicidal rate of 5% or less (almost no effect))
Velvetleaf [19]; [24]
  M: velvetleaf, herbicidal effect (criteria 0-5): 5 (Herbicidal rate of 90% or more (almost completely withered))
Redroot pigweed [20]; [24]
  N: redroot pigweed, herbicidal effect (criteria 0-5): 5 (Herbicidal rate of 90% or more (almost completely withered))
Lambsquarters [21]; [24]
  O: lambsquarters, herbicidal effect (criteria 0-5): 5 (Herbicidal rate of 90% or more (almost completely withered))
Chickweed [22]; [24]
  P: chickweed, herbicidal effect (criteria 0-5): 5 (Herbicidal rate of 90% or more (almost completely withered))
Persian speedwell [23]; [24]
  R: persian speedwell, herbicidal effect (criteria 0-5): 5 (Herbicidal rate of 90% or more (almost completely withered))

## COCCn1nc(C)c(O)c(-c2c(-c3ccc(F)cc3)sc3ccc(F)cc23)c1=O [2-429]
Late watergrass; [25]
  Herbicidal effect, A: late watergrass: 3 (Herbicidal rate of 40% or more and less than 70%)
Japanese bulrush; [25]
  Herbicidal effect, B: Japanese bulrush: 2 (Herbicidal rate of 20% or more and less than 40%)
oval-leafed pondweed; [25]
  Herbicidal effect, C: oval-leafed pondweed: 3 (Herbicidal rate of 40% or more and less than 70%)
Barnyard grass [1]
  herbicidal effect on H: barnyard grass: 3 (Herbicidal rate of 40% or more and less than 70%)
Chinese sprangletop
  herbicidal effect on D: Chinese sprangletop: 0 (Herbicidal rate of 5% or less (almost no effect))
Rice flat sedge
  herbicidal effect on E: rice flat sedge: 0 (Herbicidal rate of 5% or less (almost no effect))
Southern crabgrass [2]
  herbicidal effect, F: southern crabgrass: 0 (Herbicidal rate of 5% or less (almost no effect))
Green foxtail [3]
  herbicidal effect, G: green foxtail: 0 (Herbicidal rate of 5% or less (almost no effect))
Barnyard grass [4]
  herbicidal effect, H: barnyard grass: 0 (Herbicidal rate of 5% or less (almost no effect))
Wild oat [5]
  herbicidal effect, I: wild oat: 0 (Herbicidal rate of 5% or less (almost no effect))
Blackgrass [6]
  herbicidal effect, J: blackgrass: 0 (Herbicidal rate of 5% or less (almost no effect))
Italian ryegrass [7]
  herbicidal effect, K: Italian ryegrass: 0 (Herbicidal rate of 5% or less (almost no effect))
windgrass
  herbicidal effect, L: windgrass: 0 (Herbicidal rate of 5% or less (almost no effect))
Velvetleaf [8]
  herbicidal effect, M: velvetleaf: 1 (Herbicidal rate of 5% or more and less than 20%)
Redroot pigweed [9]
  herbicidal effect, N: redroot pigweed: 3 (Herbicidal rate of 40% or more and less than 70%)
Lambsquarters [10]
  herbicidal effect, O: lambsquarters: 0 (Herbicidal rate of 5% or less (almost no effect))
Chickweed [11]
  herbicidal effect, P: chickweed: 0 (Herbicidal rate of 5% or less (almost no effect))
Persian speedwell [12]
  herbicidal effect, R: persian speedwell: 0 (Herbicidal rate of 5% or less (almost no effect))
Southern crabgrass [13]; [26]
  F: southern crabgrass, herbicidal effect grade: 2 (Herbicidal rate of 20% or more and less than 40%)
Green foxtail [14]; [26]
  G: green foxtail, herbicidal effect grade: 0 (Herbicidal rate of 5% or less (almost no effect))
Barnyard grass [15]; [26]
  H: barnyard grass, herbicidal effect grade: 0 (Herbicidal rate of 5% or less (almost no effect))
Wild oat [16]; [26]
  I: wild oat, herbicidal effect grade: 0 (Herbicidal rate of 5% or less (almost no effect))
Blackgrass [17]; [26]
  J: blackgrass, herbicidal effect grade: 0 (Herbicidal rate of 5% or less (almost no effect))
Italian ryegrass [18]; [26]
  K: Italian ryegrass, herbicidal effect grade: 0 (Herbicidal rate of 5% or less (almost no effect))
Velvetleaf [19]; [26]
  M: velvetleaf, herbicidal effect grade: 2 (Herbicidal rate of 20% or more and less than 40%)
Redroot pigweed [20]; [26]
  N: redroot pigweed, herbicidal effect grade: 3 (Herbicidal rate of 40% or more and less than 70%)
Lambsquarters [21]; [26]
  O: lambsquarters, herbicidal effect grade: 0 (Herbicidal rate of 5% or less (almost no effect))
Chickweed [22]; [26]
  P: chickweed, herbicidal effect grade: 5 (Herbicidal rate of 90% or more (almost completely withered))
Persian speedwell [23]; [26]
  R: persian speedwell, herbicidal effect grade: 4 (Herbicidal rate of 70% or more and less than 90%)
